Results taken from ChEMBL document CHEMBL4190297, “Cafestol, a Bioactive Substance in Coffee, Has Antidiabetic Properties in KKAy Mice” (J Nat Prod, 2017).
Activity calls are given as the source filed them.

Experiments:
Type in all cases: functional, organism-based
[1] = species: Mus musculus; assay: Antidiabetic activity in KK-Ay diabetic mouse model assessed as increase in HDL levels at 0.4 to 1.1 mg added daily to normal chow pellets for 10 weeks by colorimetric analysis
[2] = species: Mus musculus; assay: Effect on Akt2 mRNA expression levels in liver of KK-Ay diabetic mouse model at 0.4 to 1.1 mg added daily to normal chow pellets for 10 weeks by qRT-PCR analysis
[3] = species: Mus musculus; assay: Effect on Mtor mRNA expression levels in adipose tissue of KK-Ay diabetic mouse model at 0.4 to 1.1 mg added daily to normal chow pellets for 10 weeks by qRT-PCR analysis
[4] = species: Mus musculus; assay: Effect on Mtor mRNA expression levels in liver of KK-Ay diabetic mouse model at 0.4 to 1.1 mg added daily to normal chow pellets for 10 weeks by qRT-PCR analysis
[5] = species: Mus musculus; assay: Effect on CD36 mRNA expression levels in liver of KK-Ay diabetic mouse model at 0.4 to 1.1 mg added daily to normal chow pellets for 10 weeks by qRT-PCR analysis
[6] = species: Mus musculus; assay: Effect on G6PD mRNA expression levels in muscle of KK-Ay diabetic mouse model at 0.4 to 1.1 mg added daily to normal chow pellets for 10 weeks by qRT-PCR analysis

Measured: Activity

C[C@@]12CCc3occc3[C@H]1CC[C@@]13C[C@H](CC[C@H]12)[C@@](O)(CO)C3
inactive: all assays above
